Laboratory results: publication PMC9863562, “Design, Synthesis, and Biological Evaluation of 2-Mercaptobenzoxazole Derivatives as Potential Multi-Kinase Inhibitors” (Pharmaceuticals, 2023)

Columns and labels:
[1] = target: T1, Human EGFR (Homo sapiens, UniProt P00533); test: In vitro EGFR enzyme assay (ELISA kit); type: biochemical
T1 construct: purchased
Method: (§1) Human CDK2, EGFR, HER2, and VEGFR-2 ELISA kits (Enzyme-Linked-Immunosorbent Serologic Assay) were used during this evaluation. At first, specified antibody proteins were added separately to a 96-well plate, then 0.1 mL of the standard solution or the evaluated molecule was added; these were then incubated for 2.5 h at RT. After rinsing, 100 μL of the ready-made biotin antibody protein was added, then incubated for one extra hour at room temperature and, finally, washed. Next, 100 μL of streptavidin solution was added, incubated at room temperature for 45 min, and then washed. Next, 100 μL of the TMB substrate reagent was added and incubated for 0.5 h at RT, followed by adding 50 μL of the stop solution. The absorbance of the ELISA plate was promptly measured at 450 nm using the ELISA plate reader.

[2] = system: Caspase-9; test: Apoptosis-related proteins in HepG2 cells (ELISA), Caspase-9; type: cell-based, human
From the text: (§2) Compound 6b was selected to investigate the apoptotic markers against the liver cancer cell line (HepG2). […] Typically, Bax, Bcl-2, and caspases contribute to the regulation of apoptotic signaling. Acting as an apoptotic activator (Bax) or inhibitor (Bcl-2), the Bcl-2 family of proteins plays a significant role in apoptosis. The caspase family comprises cysteine proteases that are classified as either executioner—caspase-3, or as initiators—caspase-9 and caspase-8 [40]. […] Nevertheless, considerable downregulation of the anti-apoptotic gene, Bcl-2 (0.26 folds), was described, leading to an increased expression ratio of Bax/Bcl-2 (1→20.53). The Bax/Bcl-2 gene expression ratio can serve as an early predictor for cancer in patients and is a sensitive monitor of cancer progression. […]
(§3) The HepG2 cells were incubated in 96-well plates in triplicates and left for 24 h. […] The treated cells, along with control cells, were then incubated for another 24 h; then, caspases-3 and 9, BAX, and Bcl-2 levels were determined using ELISA assay kits; KHO1091 (Invitrogen^TM, Grand Island, NY, USA), EIA-4860 (DRU International, Inc., Mountainside, NJ, USA), EIA-4487 (DRU International INC., Mountainside, NJ, USA) and 99–0042 (Invitrogen^TM, Grand Island, NY, USA), respectively, according to their manufacturers’ procedures.

[3] = system: Caspase-3; test: Apoptosis-related proteins in HepG2 cells (ELISA), Caspase-3; type: cell-based, human
From the text: as §2, §3

[4] = system: HepG2 cells; test: Annexin V-FITC/PI dual-staining apoptosis analysis; type: cell-based, human; settings: HepG2, 6b at 6.83 μM, 24 h
Method: To identify the mode of cell death promoted by compound 6b within the liver cancer cells (HepG2), apoptosis rate analysis was performed, following 24 h of exposure. […] Moreover, the average proportion of Annexin-V-stained positive cells (total apoptotic cells) was elevated from 2.02% within the untreated cells to 16.84% within the treated ones. […] The provided findings are supported by the previous cell cycle analysis, confirming the potentiality of 6b as a promising anticancer agent (see Table 6 and Figure 6).
Apoptosis analysis was employed to evaluate the apoptotic effect of compound 6b. […] These stained cells were evaluated using flow cytometry equipment Epics XL-MCL™ (Beckman Coulter, Apeldoorn, Netherlands) with an excitation wavelength of 488 nm and an emission wavelength of 530 nm. The results were then analyzed with the Flowing software.

[5] = target: T2, Human CDK2 (Homo sapiens, UniProt P24941); test: In vitro CDK2 enzyme assay (ELISA kit); type: biochemical
T2 construct: purchased
Method: as §1

[6] = system: HeLa cells (epithelioid cervix carcinoma); test: MTT cytotoxicity assay, HeLa; type: cell-based; settings: Homo sapiens, 24 h treatment, read-out: In Vitro Cytotoxicity IC50 Hela
Method: (§4) After incubation, the cells were treated with various concentrations of the synthesized compounds and incubated for an additional 24 h. Following the drug treatment, 20 µL of 5 mg/mL MTT solution was added and incubated for 4 h. To dissolve the purple formazan that had formed, 100 µL dimethyl sulfoxide (DMSO) was added to each well. […] The percentage of relative cell viability was counted using the following formula (A570 of handled specimens/A570 of the unhandled specimen), multiplied by 100.

[7] = system: HepG2 cells (hepatocellular carcinoma); test: MTT cytotoxicity assay, HepG2; type: cell-based; settings: Homo sapiens, HepG2, 24 h, 24 h treatment, read-out: In Vitro Cytotoxicity IC50 HepG2
From the text: The in vitro cytotoxicity for the final target compounds, 4(a–d), 5(a–f), and 6(a–b), was preliminarily evaluated via the MTT colorimetric assay against a panel of four human cell lines, namely, the hepatocellular carcinoma (HepG2), mammary gland (MCF-7), breast cancer (MDA-MB-231) and epithelioid cervix carcinoma (HeLa).
The cytotoxicity of the target hybrids was examined by an MTT assay against HepG2, HeLa, MCF-7, and MDA-MB-231. At first, the RPMI-1640 medium with 10% fetal bovine serum was used to cultivate the cell lines. Then, antibiotics (penicillin (100 units/mL) and streptomycin (100 µg/mL)) were added in a 37 °C incubator in 5% CO2. The cell lines were seeded in a 96-well plate at a density of 1.0 × 10^4 cells/well at 37 °C under 5% CO2 for 48 h. After incubation, the cells were treated with various concentrations of the synthesized compounds and incubated for an additional 24 h. Following the drug treatment, 20 µL of 5 mg/mL MTT solution was added and incubated for 4 h. To dissolve the purple formazan that had formed, 100 µL dimethyl sulfoxide (DMSO) was added to each well. At a wavelength of 570 nm, the colorimetric assay was recorded and measured, using a plate reader BioTek EXL 800 (Agilent Technologies, Inc., Santa Clara, CA, USA). The percentage of relative cell viability was counted using the following formula (A570 of handled specimens/A570 of the unhandled specimen), multiplied by 100. The results of the cytotoxicity value were presented as the median growth inhibitory concentration (IC50) of the reagents compared to the control.

[8] = system: MDA-MB-231 cells (breast cancer); test: MTT cytotoxicity assay, MDA-MB-231; type: cell-based; settings: Homo sapiens, 24 h treatment, read-out: In Vitro Cytotoxicity IC50 MDA-MB-231
Method: as §4

T1 sequence (P00533 25-1210): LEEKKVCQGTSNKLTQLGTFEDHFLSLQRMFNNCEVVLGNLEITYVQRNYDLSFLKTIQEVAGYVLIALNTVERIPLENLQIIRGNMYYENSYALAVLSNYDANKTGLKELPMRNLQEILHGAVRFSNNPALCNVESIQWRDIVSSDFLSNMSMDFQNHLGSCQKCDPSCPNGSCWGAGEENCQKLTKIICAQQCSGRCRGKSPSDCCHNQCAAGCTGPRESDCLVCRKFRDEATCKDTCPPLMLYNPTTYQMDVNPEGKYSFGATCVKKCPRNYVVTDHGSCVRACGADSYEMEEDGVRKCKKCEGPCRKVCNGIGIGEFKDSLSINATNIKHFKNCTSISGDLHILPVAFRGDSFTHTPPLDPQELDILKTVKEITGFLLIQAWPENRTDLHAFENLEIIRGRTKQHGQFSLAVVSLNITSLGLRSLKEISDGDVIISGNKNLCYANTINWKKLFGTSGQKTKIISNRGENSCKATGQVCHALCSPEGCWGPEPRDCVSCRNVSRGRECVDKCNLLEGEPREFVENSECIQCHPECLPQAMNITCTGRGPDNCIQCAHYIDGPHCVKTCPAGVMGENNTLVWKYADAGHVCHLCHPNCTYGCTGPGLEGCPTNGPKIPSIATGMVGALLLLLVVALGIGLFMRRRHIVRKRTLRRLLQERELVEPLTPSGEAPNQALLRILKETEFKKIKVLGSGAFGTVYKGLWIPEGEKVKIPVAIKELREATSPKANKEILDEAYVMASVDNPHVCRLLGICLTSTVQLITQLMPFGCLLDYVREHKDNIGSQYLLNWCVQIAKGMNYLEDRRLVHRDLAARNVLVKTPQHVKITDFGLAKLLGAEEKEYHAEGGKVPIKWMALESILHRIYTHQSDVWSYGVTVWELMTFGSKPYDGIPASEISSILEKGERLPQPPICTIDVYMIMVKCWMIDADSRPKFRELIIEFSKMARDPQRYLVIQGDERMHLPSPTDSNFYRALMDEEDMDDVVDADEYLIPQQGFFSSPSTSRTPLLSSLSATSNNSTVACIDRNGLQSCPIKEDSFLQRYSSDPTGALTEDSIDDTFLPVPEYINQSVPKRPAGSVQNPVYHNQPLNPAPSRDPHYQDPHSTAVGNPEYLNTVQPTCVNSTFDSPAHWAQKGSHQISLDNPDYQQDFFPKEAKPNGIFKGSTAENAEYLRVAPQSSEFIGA

IC50 [1]: 0.279 ± 0.017 µM
IC50 [5]: 0.886 ± 0.046 µM
Structure (SMILES): O=C(CSc1nc2ccccc2o1)NN=Cc1ccc[nH]1 (mixture of isomers) [Compound 6b, (E/Z)-N′-((1H-pyrrol-2-yl)methylene)-2-(benzo[d]oxazol-2-ylthio)acetohydrazide]
Caspase-9 Expression ([2]; 24 h treatment, ELISA): 15.82 ± 0.51 pg/mL
Caspase-9 Fold ([2]; versus control HepG2 = 1): 3.5 fold
Caspase-3 Expression ([3]; 24 h treatment, ELISA): 467.6 ± 24 pg/mL
Caspase-3 Fold ([3]; versus control HepG2 = 1): 5.02 fold
Early Apoptosis (Lower Right %) [4]: 1.64%
Late Apoptosis (Upper Right %) [4]: 10.91%
Total (%) apoptotic cells [4]: 16.84%
IC50 [6]: 5.18 ± 0.5 µM
IC50 [7]: ~6.83 µM
IC50 [8]: 2.14 ± 0.1 µM
